Results on six molecules are retold here after patent US20260356856A1, “KRAS G12S AND G12C INHIBITORS” (MIRATI THERAPEUTICS, INC., priority 2023, published 2026).

The target in experiment [1] is T1, KRas-mediated phosphorylation of ERK in A549 cells (Homo sapiens, UniProt P01116, G12S).
T1 construct: pERK HTRF read-out
Briefly: Inhibition of KRas-mediated phosphorylation of ERK (HTRF), A549 cells. It is filed as cell-based. As to conditions: HTRF pERK, 3 h incubation.

Experiment [2] has as its target T2, KRas-mediated phosphorylation of ERK in H358 cells (Homo sapiens, UniProt P01116, G12C).
T2 construct: pERK HTRF read-out
In words: Inhibition of KRas-mediated phosphorylation of ERK (HTRF), H358 cells. The format is cell-based. As to conditions: HTRF pERK, 3 h incubation.

For another experiment, the target named is T3, KRas WT (Homo sapiens, UniProt P01116).
T3 construct: Biotinylated KRas (corresponding to amino acids 1-169, produced at Accelegan Inc.); biotin (biotinylated); purchased Accelegan Inc
Briefly: KRas binding assay, TR-FRET displacement of Cy5 labelled tracer. To be noted: 60-minute incubation at room temperature, 1% DMSO, pH 7.5. In a few lines:
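Biotinylated KRas (aa 1-169) incubated with Cy5-labelled tracer, terbium streptavidin and compound (1% DMSO final) in 50 mM HEPES pH 7.5, 5 mM MgCl2, 0.005% Tween-20, 1 mM DTT. Tracer displacement read by TR-FRET after 60 min at room temperature; POC values fitted to 4-parameter IC50 equation.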

The target in a further experiment is T4, KRas G12C (Homo sapiens, UniProt P01116, G12C).
T4 construct: Biotinylated KRas (corresponding to amino acids 1-169, produced at Accelegan Inc.); biotin (biotinylated); purchased Accelegan Inc
The description is as above. To be noted: 60-minute incubation at room temperature, 1% DMSO, pH 7.5. In a few lines: (§1)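 TR-FRET tracer-displacement readout after 60 min at room temperature, using KRas residues 1-169 (biotinylated) with terbium streptavidin and a Cy5 tracer. Buffer: 50 mM HEPES pH 7.5, 5 mM MgCl2, 0.005% Tween-20, 1 mM DTT, 1% DMSO final. IC50 from 4-parameter fit of POC data.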

The target of the next experiment is T5, KRas G12S (Homo sapiens, UniProt P01116, G12S).
T5 construct: Biotinylated KRas (corresponding to amino acids 1-169, produced at Accelegan Inc.); biotin (biotinylated); purchased Accelegan Inc
The experiment is described as above. To be noted: 60-minute incubation at room temperature, 1% DMSO, pH 7.5. In short, it runs like this:
as §1

The target in experiment [3] is T6, KRas-mediated phosphorylation of ERK in MKN1 cells (Homo sapiens, UniProt P01116).
T6 construct: pERK HTRF read-out
Briefly: Inhibition of KRas-mediated phosphorylation of ERK (HTRF), MKN1 cells. To be noted: MKN1 cells (KRas WT); HTRF pERK; 3 h incubation. It is filed as cell-based. How it is done:
Inhibition of KRas Phosphorylation of ERK (HTRF) by Exemplary Compounds of Formula (Ia) or (Ib)
Cisbio HTRF Advanced pERK Assay Catalog #64AERPEH • Cells: MKN1, PSN1 • Procedure: • 1. Day 1: Seed 6,000 cells/well −25 μl/well in 384-well white solid bottom plate; RPM1_10% FBS. Incubate overnight at 37 °C/5% CO2. • 2.

T5 sequence (P01116 1-169 isoform P01116-2 G12S): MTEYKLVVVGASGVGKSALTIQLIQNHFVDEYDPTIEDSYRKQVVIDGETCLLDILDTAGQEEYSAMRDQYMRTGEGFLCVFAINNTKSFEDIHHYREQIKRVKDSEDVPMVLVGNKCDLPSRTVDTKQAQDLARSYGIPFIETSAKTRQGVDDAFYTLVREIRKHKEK
T3 sequence (P01116 1-169 isoform P01116-2): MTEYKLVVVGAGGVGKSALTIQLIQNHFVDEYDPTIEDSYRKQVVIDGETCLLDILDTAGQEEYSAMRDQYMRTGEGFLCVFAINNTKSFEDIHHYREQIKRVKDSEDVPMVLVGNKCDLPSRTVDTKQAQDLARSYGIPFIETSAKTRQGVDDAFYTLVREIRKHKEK
T1 sequence (P01116 1-188 isoform P01116-2 G12S): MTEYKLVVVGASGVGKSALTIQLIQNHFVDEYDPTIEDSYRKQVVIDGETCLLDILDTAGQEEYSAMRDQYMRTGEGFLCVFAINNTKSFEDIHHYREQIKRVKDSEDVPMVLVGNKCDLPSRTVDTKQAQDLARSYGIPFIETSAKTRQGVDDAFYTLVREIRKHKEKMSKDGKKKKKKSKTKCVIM
T2 sequence (P01116 1-188 isoform P01116-2 G12C): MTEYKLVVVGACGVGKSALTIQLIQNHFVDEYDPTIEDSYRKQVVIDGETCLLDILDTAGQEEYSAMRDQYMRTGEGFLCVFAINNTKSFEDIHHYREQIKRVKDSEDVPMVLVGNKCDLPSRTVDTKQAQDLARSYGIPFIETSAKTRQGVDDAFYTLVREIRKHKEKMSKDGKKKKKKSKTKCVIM
T6 sequence (P01116 1-188 isoform P01116-2): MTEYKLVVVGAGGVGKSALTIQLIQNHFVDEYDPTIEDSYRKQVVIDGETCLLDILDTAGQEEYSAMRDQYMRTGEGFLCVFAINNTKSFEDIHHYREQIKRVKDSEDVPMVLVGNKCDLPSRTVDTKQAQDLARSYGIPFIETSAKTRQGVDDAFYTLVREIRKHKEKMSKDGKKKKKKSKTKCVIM
T4 sequence (P01116 1-169 isoform P01116-2 G12C): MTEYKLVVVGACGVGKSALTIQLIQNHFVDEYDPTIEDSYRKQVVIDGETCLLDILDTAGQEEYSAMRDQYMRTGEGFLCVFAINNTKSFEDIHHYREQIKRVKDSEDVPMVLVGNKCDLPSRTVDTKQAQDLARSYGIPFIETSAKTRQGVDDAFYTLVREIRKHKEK

For the molecule `CCc1c(F)ccc2cc(O)cc(-c3ncc4c(N(C)C(C)CCC(=O)N(C)C(C)=O)nc(OC[C@@]56CCCN5C[C@H](F)C6)nc4c3F)c12` (stereo partly drawn) [Example 282, N-acetyl-4-((7-(8-ethyl-7-fluoro-3-hydroxynaphthalen-1-yl)-8-fluoro-2-(((2R,7aS)-2-fluorotetrahydro-1H-pyrrolizin-7a(5H)-yl)methoxy)pyrido[4,3-d]pyrimidin-4-yl)(methyl)amino)-N-methylpentanamide], the IC50 amounted to 185 nM in experiment [1]; 1290 nM in experiment [2]; 184 nM at KRas WT; 82 nM at KRas G12C; 44 nM at KRas G12S; 870 nM in experiment [3].

Take `CCc1c(F)ccc2cc(O)cc(-c3ncc4c(N(C)CC(C)CC(=O)N(C)C(C)=O)nc(OC[C@@]56CCCN5C[C@H](F)C6)nc4c3F)c12` (stereo partly drawn) [Example 283, N-acetyl-4-((7-(8-ethyl-7-fluoro-3-hydroxynaphthalen-1-yl)-8-fluoro-2-(((2R,7aS)-2-fluorotetrahydro-1H-pyrrolizin-7a(5H)-yl)methoxy)pyrido[4,3-d]pyrimidin-4-yl)(methyl)amino)-N,3-dimethylbutanamide]: the IC50 in experiment [1] was 701 nM; in experiment [2], 1320 nM; on KRas WT it was 103 nM; at KRas G12C it was 183 nM; on KRas G12S, 134 nM; in experiment [3], 323 nM.

`CCc1c(F)ccc2cc(O)cc(-c3ncc4c(N(C)CCC(C)C(=O)N(C)C(C)=O)nc(OC[C@@]56CCCN5C[C@H](F)C6)nc4c3F)c12` (stereo partly drawn) [Example 284, N-acetyl-4-((7-(8-ethyl-7-fluoro-3-hydroxynaphthalen-1-yl)-8-fluoro-2-(((2R,7aS)-2-fluorotetrahydro-1H-pyrrolizin-7a(5H)-yl)methoxy)pyrido[4,3-d]pyrimidin-4-yl)(methyl)amino)-N,2-dimethylbutanamide]: the IC50 came to 7 nM in experiment [1]; 39 nM in experiment [2]; 77 nM on KRas WT; 8 nM on KRas G12C; 5 nM at KRas G12S; 446 nM in experiment [3].

Consider `CCc1c(F)ccc2cc(O)cc(-c3ncc4c(N5CCCC(C(=O)N(C)C(C)=O)CC5)nc(OC[C@@]56CCCN5C[C@H](F)C6)nc4c3F)c12` (stereo partly drawn) [Example 285, N-acetyl-1-(7-(8-ethyl-7-fluoro-3-hydroxynaphthalen-1-yl)-8-fluoro-2-(((2R,7aS)-2-fluorotetrahydro-1H-pyrrolizin-7a(5H)-yl)methoxy)pyrido[4,3-d]pyrimidin-4-yl)-N-methylazepane-4-carboxamide], for which the IC50 in experiment [1] was 151 nM; in experiment [2], 4290 nM; at KRas WT, 492 nM; at KRas G12C, 882 nM; at KRas G12S it was 175 nM; in experiment [3], 2420 nM.

On to `COC(=O)C1CCN(c2nc(OC[C@@]34CCCN3C[C@H](F)C4)nc3c(F)c(-c4ccc(F)c5sc(N)c(C#N)c45)c(Cl)cc23)CC1` [Example 286, Methyl 1-(7-(2-amino-3-cyano-7-fluorobenzo[b]thiophen-4-yl)-6-chloro-8-fluoro-2-(((2R,7aS)-2-fluorotetrahydro-1H-pyrrolizin-7a(5H)-yl)methoxy)quinazolin-4-yl)piperidine-4-carboxylate], for which the IC50 in experiment [1] was 237 nM; in experiment [2], 106 nM; on KRas WT, 6 nM; on KRas G12C it was 11 nM; on KRas G12S it was 15 nM; in experiment [3] it was 24 nM.

Take `N#Cc1c(N)sc2c(F)ccc(-c3c(Cl)cc4c(N5CCC(C(=O)Oc6ccccc6)CC5)nc(OC[C@@]56CCCN5C[C@H](F)C6)nc4c3F)c12` [Example 287, phenyl 1-(7-(2-amino-3-cyano-7-fluorobenzo[b]thiophen-4-yl)-6-chloro-8-fluoro-2-(((2R,7aS)-2-fluorotetrahydro-1H-pyrrolizin-7a(5H)-yl)methoxy)quinazolin-4-yl)piperidine-4-carboxylate]: the IC50 in experiment [1] turned out to be 104 nM; in experiment [2], 13 nM; on KRas WT, 170 nM; on KRas G12C, 6 nM; on KRas G12S it was 16 nM; in experiment [3], 360 nM.
